Where “and” joins values, the source holds several entries; their conditions need not be identical. Equal entries are not always repeated. Toxic doses and inconclusive results are not listed. Peptide text beside a SMILES is read from it. * marks the point of attachment. Butyryl = CCCC(=O)*; Bn = c1ccc(C*)cc1
Test system: P388 leukemia ip, CD2F1 mice, survival T/C
Experiment: NCI In Vivo Anticancer Drug Screen. Data for tumor model P388 Leukemia (intraperitoneal) in CD2F1 (CDF1) mice
Conditions: endpoint: median survival time, higher = longer survival
Summary of the method: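 Mice carrying the transplanted tumor received test compound or vehicle. Survival was recorded in each group, and the value is the treated-group measurement divided by that of the vehicle-treated control group.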

[1] = dose: 6.25 mg/kg/injection, schedule: Q01DX009 (ip), vehicle: saline with Tween-80
[2] = dose: 12.5 mg/kg/injection, schedule: Q01DX009 (ip), vehicle: saline with Tween-80
[3] = dose: 25.0 mg/kg/injection, schedule: Q01DX009 (ip), vehicle: saline with Tween-80
[4] = dose: 50.0 mg/kg/injection, schedule: Q01DX009 (ip), vehicle: saline with Tween-80
[5] = dose: 50.0 mg/kg/injection, schedule: Q01DX005 (ip), vehicle: Klucel (hydroxypropylcellulose) (HPC)
[6] = dose: 100.0 mg/kg/injection, schedule: Q01DX005 (ip), vehicle: Klucel (hydroxypropylcellulose) (HPC)
[7] = dose: 200.0 mg/kg/injection, schedule: Q01DX005 (ip), vehicle: Klucel (hydroxypropylcellulose) (HPC)
[8] = dose: 50.0 mg/kg/injection, schedule: Q01DX009 (ip), vehicle: saline
[9] = dose: 100.0 mg/kg/injection, schedule: Q01DX009 (ip), vehicle: saline
[10] = dose: 25.0 mg/kg/injection, schedule: Q01DX009 (ip), vehicle: water
[11] = dose: 50.0 mg/kg/injection, schedule: Q01DX005 (ip), vehicle: saline with Tween-80
[12] = dose: 100.0 mg/kg/injection, schedule: Q01DX005 (ip), vehicle: saline with Tween-80
[13] = dose: 200.0 mg/kg/injection, schedule: Q01DX005 (ip), vehicle: saline with Tween-80

O.O=[N+]([O-])O.[NH2-].[NH2-].[Pt+2] was tested, and the T/C (dose: 0.04 mg/kg/injection, schedule: Q01DX009 (ip), vehicle: other) was 118 % of control, the T/C (dose: 0.16 mg/kg/injection, schedule: Q01DX009 (ip), vehicle: other) was 91 % of control and the T/C (dose: 0.31 mg/kg/injection, schedule: Q01DX009 (ip), vehicle: other) was 150 % of control.
With CCOC(=O)N1Cc2cc3ccccc3nc2C1 the T/C [1] was 107 % of control, the T/C [2] was 101 % of control and the T/C [3] was 101 % of control. The T/C [4] was 108 % of control.
For C[n+]1c2ccccc2cc2ccccc21, the T/C (dose: 25.0 mg/kg/injection, schedule: Q04DX003 (ip), vehicle: saline with Tween-80) was 86 % of control.
In the case of CC1Cc2nc3ccccc3c(=O)n2O1 (stereo unspecified), the T/C (dose: 50.0 mg/kg/injection, schedule: Q01DX009 (ip), vehicle: Klucel (hydroxypropylcellulose) (HPC)) is reported as 103 % of control, the T/C (dose: 100.0 mg/kg/injection, schedule: Q01DX009 (ip), vehicle: Klucel (hydroxypropylcellulose) (HPC)) is reported as 107 % of control and the T/C (dose: 200.0 mg/kg/injection, schedule: Q01DX009 (ip), vehicle: Klucel (hydroxypropylcellulose) (HPC)) is reported as 103 % of control.
COc1cc2c(cc1OC)[C@H]1[C@@H](CO)c3ccc4c(c3CN1CC2)OCO4 was tested, and the T/C [5] was 109 % of control, the T/C [6] was 92 % of control and the T/C [7] was 92 % of control.
O=C(O)c1c[nH]c2cc(F)ccc2c1=O was tested, and the T/C [8] was 103 % of control, the T/C [9] was 95 % of control and the T/C (dose: 200.0 mg/kg/injection, schedule: Q01DX009 (ip), vehicle: saline) was 96 % of control.
For Cc1cc(CO)cc(CO)c1, the T/C (dose: 100.0 mg/kg/injection, schedule: Q01DX001 (ip), vehicle: saline with Tween-80) was 104 % of control, the T/C (dose: 200.0 mg/kg/injection, schedule: Q01DX001 (ip), vehicle: saline with Tween-80) was 101 % of control and the T/C (dose: 400.0 mg/kg/injection, schedule: Q01DX001 (ip), vehicle: saline with Tween-80) was 100 % of control.
In the case of O=[N+]([O-])c1cnc(Sc2cncc[n+]2[O-])s1, the T/C (dose: 1.56 mg/kg/injection, schedule: Q01DX009 (ip), vehicle: Klucel (hydroxypropylcellulose) (HPC)) is reported as 100 % of control, the T/C (dose: 3.12 mg/kg/injection, schedule: Q01DX009 (ip), vehicle: Klucel (hydroxypropylcellulose) (HPC)) is reported as 93 % of control and the T/C (dose: 6.25 mg/kg/injection, schedule: Q01DX009 (ip), vehicle: Klucel (hydroxypropylcellulose) (HPC)) is reported as 102 % of control and 90 % of control.
In the case of CC(C)(C)OP(=O)(O)OC(C)(C)C, the T/C [10] is reported as 103 % of control, the T/C (dose: 50.0 mg/kg/injection, schedule: Q01DX009 (ip), vehicle: water) is reported as 100 % of control and the T/C (dose: 100.0 mg/kg/injection, schedule: Q01DX009 (ip), vehicle: water) is reported as 107 % of control. The T/C (dose: 200.0 mg/kg/injection, schedule: Q01DX009 (ip), vehicle: water) was 107 % of control and the T/C (dose: 400.0 mg/kg/injection, schedule: Q01DX009 (ip), vehicle: water) was 112 % of control.
COC(=O)c1n[nH]n(Cc2ccccc2)c1=O (tested in a mixture with another compound) was tested, and the T/C [5] was 103 % of control, the T/C [6] was 92 % of control and the T/C [7] was 92 % of control.
O=C(O)/C=C\C(=O)N[C@H]1CCSC1=O was tested, and the T/C (dose: 60.0 mg/kg/injection, schedule: Q01DX005 (ip), vehicle: Klucel (hydroxypropylcellulose) (HPC)) was 94 % of control, the T/C (dose: 120.0 mg/kg/injection, schedule: Q01DX005 (ip), vehicle: Klucel (hydroxypropylcellulose) (HPC)) was 94 % of control and the T/C (dose: 240.0 mg/kg/injection, schedule: Q01DX005 (ip), vehicle: Klucel (hydroxypropylcellulose) (HPC)) was 90 % of control.
In the case of Cn1cc2c(c1-c1ccccc1)[n+](=O)c1ccccc1n2[O-], the T/C [11] is reported as 94 % of control, the T/C [12] is reported as 91 % of control and the T/C [13] is reported as 95 % of control.
In the case of CC(C)(C)C(=O)CC(=O)C(F)(F)C(F)(F)C(F)(F)F.[Ag], the T/C [1] is reported as 119 % of control, the T/C [2] is reported as 119 % of control and the T/C [3] is reported as 114 % of control.
For CCn1c2c(c3ccccc3c1=O)C(=O)c1ccccc1-2, the T/C [11] was 103 % of control, the T/C [12] was 103 % of control and the T/C [13] was 94 % of control.
For O=Cc1coc2ccccc2c1=O, the T/C (dose: 25.0 mg/kg/injection, schedule: Q01DX009 (ip), vehicle: saline) was 120 % of control, the T/C [8] was 110 % of control and the T/C [9] was 119 % of control and 120 % of control.
COc1ccc(/C=N/Nc2nnc3c(n2)[nH]c2ccc(Br)cc23)cc1 was tested, and the T/C (dose: 100.0 mg/kg/injection, schedule: Q04DX002 (ip), vehicle: saline with Tween-80) was 100 % of control, the T/C (dose: 200.0 mg/kg/injection, schedule: Q04DX002 (ip), vehicle: saline with Tween-80) was 109 % of control and the T/C (dose: 400.0 mg/kg/injection, schedule: Q04DX002 (ip), vehicle: saline with Tween-80) was 110 % of control.
In the case of CCCC(=O)NC(CSCc1ccccc1)C(=O)NC(CCC(=O)OC)C(=O)OC (stereo unspecified) (Butyryl-Cys(Bn)-Glu(OMe)-OMe; configuration not given here), the T/C [4] is reported as 104 % of control, the T/C (dose: 100.0 mg/kg/injection, schedule: Q01DX009 (ip), vehicle: saline with Tween-80) is reported as 104 % of control and the T/C (dose: 200.0 mg/kg/injection, schedule: Q01DX009 (ip), vehicle: saline with Tween-80) is reported as 96 % of control.
CCOC(=O)c1ccc(NN=NCCOC)cc1 was tested, and the T/C (dose: 12.5 mg/kg/injection, schedule: Q01DX009 (ip), vehicle: distilled water + Tween-80) was 102 % of control, the T/C (dose: 25.0 mg/kg/injection, schedule: Q01DX009 (ip), vehicle: distilled water + Tween-80) was 101 % of control and 105 % of control and the T/C (dose: 50.0 mg/kg/injection, schedule: Q01DX009 (ip), vehicle: distilled water + Tween-80) was 122 % of control and 123 % of control.
For O=c1ncc(F)cn1C1OC(CO)C(O)C1O (stereo unspecified), the T/C (dose: 1.5 mg/kg/injection, schedule: Q01DX009 (ip), vehicle: Klucel (hydroxypropylcellulose) (HPC)) was 106 % of control, the T/C (dose: 3.0 mg/kg/injection, schedule: Q01DX009 (ip), vehicle: Klucel (hydroxypropylcellulose) (HPC)) was 87 % of control and the T/C (dose: 6.0 mg/kg/injection, schedule: Q01DX009 (ip), vehicle: Klucel (hydroxypropylcellulose) (HPC)) was 86 % of control.
With COc1ccc(/C=C/c2nc(Nc3ccc(O)c(CN4CCCCC4)c3)c3ccccc3n2)cc1 the T/C (dose: 50.0 mg/kg/injection, schedule: Q01DX009 (ip), vehicle: distilled water + alcohol) was 99 % of control, the T/C (dose: 100.0 mg/kg/injection, schedule: Q01DX009 (ip), vehicle: distilled water + alcohol) was 100 % of control and the T/C (dose: 200.0 mg/kg/injection, schedule: Q01DX009 (ip), vehicle: distilled water + alcohol) was 91 % of control.
With O=C(NC(Cc1ccc(O)cc1)C(=O)O)C(=O)c1c[nH]c2ccccc12 (stereo unspecified) the T/C (dose: 60.0 mg/kg/injection, schedule: Q01DX005 (ip), vehicle: saline with Tween-80) was 96 % of control, the T/C (dose: 120.0 mg/kg/injection, schedule: Q01DX005 (ip), vehicle: saline with Tween-80) was 97 % of control and the T/C (dose: 240.0 mg/kg/injection, schedule: Q01DX005 (ip), vehicle: saline with Tween-80) was 100 % of control.
In the case of COc1cccc2c1C(=O)c1c(O)c3c(c(O)c1C2=O)C[C@@](O)(c1csc(N)n1)C[C@@H]3OC1CC(N)C(O)C(C)O1 (stereo partly specified), the T/C (dose: 1.56 mg/kg/injection, schedule: Q01DX009 (ip), vehicle: water) is reported as 150 % of control, the T/C (dose: 6.25 mg/kg/injection, schedule: Q01DX009 (ip), vehicle: water) is reported as 157 % of control and 160 % of control and the T/C (dose: 6.25 mg/kg/injection, schedule: Q04DX003 (ip), vehicle: water) is reported as 96 % of control. For the same compound, the T/C (dose: 12.5 mg/kg/injection, schedule: Q01DX009 (ip), vehicle: water) was 155 % of control and 163 % of control, the T/C (dose: 12.5 mg/kg/injection, schedule: Q04DX003 (ip), vehicle: water) was 105 % of control and 109 % of control and the T/C [10] was 178 % of control. For the same compound, the T/C (dose: 25.0 mg/kg/injection, schedule: Q04DX003 (ip), vehicle: water) was 118 % of control and the T/C (dose: 100.0 mg/kg/injection, schedule: Q04DX003 (ip), vehicle: water) was 123 % of control.
With O=C1C=C(c2ccccc2)S(=O)(=O)c2cc(O)ccc21 the T/C [11] was 119 % of control, the T/C [12] was 114 % of control and the T/C [13] was 110 % of control.
For O=C(NN1C(=O)CS(=O)(=O)C1c1ccccc1F)c1ccncc1 (stereo unspecified), the T/C (dose: 6.25 mg/kg/injection, schedule: Q01DX005 (ip), vehicle: saline with Tween-80) was 102 % of control, the T/C (dose: 12.5 mg/kg/injection, schedule: Q01DX005 (ip), vehicle: saline with Tween-80) was 98 % of control and the T/C (dose: 25.0 mg/kg/injection, schedule: Q01DX005 (ip), vehicle: saline with Tween-80) was 99 % of control. For the same compound, the T/C [11] was 97 % of control, the T/C [12] was 90 % of control and the T/C [13] was 97 % of control.
